Key:
[1] = test system: dopamine uptake in bovine striatal membrane; conditions: cited from earlier work
[2] = test system: central serotonin (5HIAA in hypothalamus); experiment: Decrease of serotonin metabolite 5HIAA in hypothalamus as a measure of central serotonin agonist activity; assay type: in vivo, Wistar rats; conditions: 0.3 mg./kg. s.c., 1 hour before rats were killed; control 2.59 ± .11; * = statistically significant
Experimental: (§1) Secondly, as a measure of central serotonin agonist activity, the decrease of serotonin metabolites in brain was measured. Also the measure of dopamine agonist activity was indicated by changes in dopamine metabolites.
(§2) The following protocol was employed. 150-200 g. Wistar rats were given 0.3 mg./kg. subcutaneously of (±)-4-di-n-propylamino-6-substituted-1,3,4,5-tetrahydrobenz[c,d]indole.Then, 60 minutes later each rat was decapitated and the hypothalamus and striatum were dissected out and extracted. The amounts of homovanillic acid (HVA) and 3,4-dihydroxyphenylacetic acid (DOPAC) in the striatum and of 5-hydroxyindoleacetic acid (5HIAA) in the hypothalamus were measured by high-performance liquid chromatography, using electrochemical detection. Serum corticosteroids were also measured. In the table, columns 1 and 2 give the substitution pattern in the compounds of formula IV, columns 3-5, the 5HT or dopamine metabolite concentrations, and column 6, the serum corticosteroids.

[3] = target: T1, ^3 H-spiperone (^3 H-SPIP) receptor binding, cerebral cortex (Rattus norvegicus, UniProt P14842); experiment: Inhibition of ^3 H-spiperone (^3 H-SPIP) specific binding in rat cerebral cortex membranes; design: species or system male Wistar rats; conditions: ^3 H-spiperone 0.6-0.7 nM, 15 minutes at 37°, pH=7.4, values in nanomoles of inhibitor, read-out: ^3 H-Ligand-IC50, ^3 H-SPIP
T1 construct: The cerebral cortex was dissected out and then homogenized and centrifuged; from tissue; host or cells: cerebral cortex membranes of male Wistar rats
Experimental: Brain tissue was obtained from 150-200 g. male Wistar rats. The cerebral cortex was dissected out and then homogenized and centrifuged according to the method described by Nelson and coworkers, Mol. Pharmacol., 14, 983-995 (1978), using preincubation in buffer without added monoamine oxidase inhibitor in order to eliminate endogenous serotonin. For receptor binding, each sample contained 300-400 μg. of membrane protein and 10 μM pargyline in addition to the ^3 H-ligand in 1 ml. of 0.05M tris buffer, pH=7.4. The assay of serotinin binding was done following the method of Bennett and Snyder, Mol. Pharmacol., 12, 373-389 (1976), and that for tritiated spiperone according to Peroutka and Snyder, Mol. Pharmacol., 16, 687-699 (1979). The samples were incubated for 15 minutes at 37° and were then filtered through GF/C glass fiber filter pads using a Brandel M-24 cell harvester modified for receptor binding. After two 5 ml. rinses, the filter discs were put into scintillation vials and counted in 10 ml. of Amersham PCS scintillation fluid. Nonspecific binding of ^3 H-serotonin (^3 H-5HT) was determined in the presence of 10^-5 M serotonin and of ^3 H-spiperone in the presence of 10^-6 M LSD. Specific binding was calculated as the difference between total binding with no added nonradioactive compound and the nonspecific binding.

[4] = Serum corticosteroids (corticosterone); assay type: in vivo, Wistar rats; conditions: 0.3 mg./kg. s.c., 1 hour before rats were killed; control 7 ± 1; * = statistically significant
Experimental: as §2

[5] = target: ^3 H-serotonin (^3 H-5HT) receptor binding, cerebral cortex; experiment: Inhibition of ^3 H-serotonin (^3 H-5HT) specific binding in rat cerebral cortex membranes; design: species or system male Wistar rats; conditions: ^3 H-serotonin 2-3 nM, 15 minutes at 37°, pH=7.4, values in nanomoles of inhibitor, read-out: ^3 H-Ligand-IC50, ^3 H-5HT
[6] = test system: dopamine (metabolites in striatum); experiment: Changes in dopamine metabolites (DOPAC, HVA) in striatum as a measure of dopamine agonist activity; assay type: in vivo, Wistar rats; conditions: 0.3 mg./kg. s.c., 1 hour before rats were killed, * = statistically significant; for Dopamine Metabolites In Striatum, HVA: control 4.24 ± .27; for Dopamine Metabolites In Striatum, DOPAC: control 5.58 ± .38
Experimental: as §1, §2

T1 sequence (P14842 whole entry): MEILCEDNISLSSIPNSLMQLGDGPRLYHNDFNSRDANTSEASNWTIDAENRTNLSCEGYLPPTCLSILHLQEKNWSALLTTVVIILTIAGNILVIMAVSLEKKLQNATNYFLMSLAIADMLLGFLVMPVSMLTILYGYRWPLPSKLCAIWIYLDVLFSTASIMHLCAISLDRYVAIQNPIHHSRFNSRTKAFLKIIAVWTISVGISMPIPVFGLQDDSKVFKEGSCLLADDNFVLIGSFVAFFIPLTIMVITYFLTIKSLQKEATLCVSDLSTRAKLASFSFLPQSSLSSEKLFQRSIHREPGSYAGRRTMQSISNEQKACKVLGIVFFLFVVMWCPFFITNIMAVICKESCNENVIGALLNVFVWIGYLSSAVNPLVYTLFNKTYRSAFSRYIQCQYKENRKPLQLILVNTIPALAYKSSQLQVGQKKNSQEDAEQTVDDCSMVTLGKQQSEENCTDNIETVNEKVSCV

SMILES: CCCN(CCC)C1Cc2cccc3[nH]cc(c23)C1 (racemic) [(±)-4-(di-n-propyl)amino-1,3,4,5-tetrahydrobenz[c,d]indole]
- dopamine agonist action (inhibiting dopamine uptake in bovine striatal membrane in vitro) [1]: selective dopamine agonist

SMILES: CCCN(CCC)C1Cc2c[nH]c3ccc(C(N)=O)c(c23)C1 (racemic) [(±)-4-Di-n-propylamino-6-carbamoyl-1,3,4,5-tetrahydrobenz[c,d]indole]
- 5HIAA In Hypothalamus [2]: 1.58 ± .03 NMoles/G
- IC50 [3]: 4980 nM
- Serum Corticosterone [4]: 49 ± 2 MCG/100 ML
- IC50 [5]: 60 nM
- Dopamine Metabolites In Striatum, HVA [6]: 4.12 ± .27 NMoles/G
- Dopamine Metabolites In Striatum, DOPAC [6]: 6.23 ± .56 NMoles/G

SMILES: CCCN(CCC)C1Cc2c[nH]c3ccc(C#N)c(c23)C1 (racemic) [(±)-4-Di-n-propylamino-6-cyano-1,3,4,5-tetrahydrobenz[c,d]indole]
- 5HIAA In Hypothalamus [2]: 2.34 ± .07 NMoles/G
- IC50 [3]: 390 nM
- Serum Corticosterone [4]: 47 ± 4 MCG/100 ML
- IC50 [5]: 90 nM
- Dopamine Metabolites In Striatum, HVA [6]: 2.27 ± .16 NMoles/G
- Dopamine Metabolites In Striatum, DOPAC [6]: 4.25 ± .25 NMoles/G

SMILES: CCCN(CCC)C1Cc2c[nH]c3ccc([N+](=O)[O-])c(c23)C1 (racemic) [(±)-4-Di-n-propylamino-6-nitro-1,3,4,5-tetrahydrobenz[c,d]indole]
- 5HIAA In Hypothalamus [2]: 2.29 ± .03 NMoles/G
- IC50 [3]: 400 nM
- Serum Corticosterone [4]: 49 ± 2 MCG/100 ML
- IC50 [5]: 100 nM
- Dopamine Metabolites In Striatum, HVA [6]: 2.02 ± .20 NMoles/G
- Dopamine Metabolites In Striatum, DOPAC [6]: 3.74 ± .11 NMoles/G

— US4576959A, “6-Substituted-4-dialkylaminotetrahydrobenz[c,d]indoles” (priority 1985, dated 1986)
